For assay [1], the system named is FZD CRD-Fc proteins. Nature of the assay: fluorescence size-exclusion chromatography (FSEC) with FZD CRD-Fc proteins. It counts as binding. The note with it: 1 μM peptide, 250 nM FZD CRD-Fc, overnight at 4° C.; FZD1, FZD2 and FZD7 CRD-Fc. Here is the method:
(§1) Fluorescence size-exclusion chromatography (FSEC) experiments were run using an AKTA FPLC system (General Electric Company) with UNICORN software package (version 5.31). Samples were resolved using a SEC3000 or SEC2000 (Phenomenex; Torrence, Calif.) column at 0.5 mL/min in phosphate buffer. Fluorescence was monitored using a FP-2020 Plus fluorescence detector (Jasco Analytical Instruments, Easton, Md.) in normal mode (excitation/emission, […]; gain=100; STD=32). All samples were prepared with a final DMSO concentration of 1% and incubated overnight at 4° C. prior to sample separation. FZD CRD-Fc samples were kept at ˜250 nM in the presence of excess 5FAM labeled peptide (1 μM). […]
Selective targeting of the FZD7 receptor subclass was also observed chromatographically. […] See FIGS. 4A and 4B, which provide representative fluorescence traces of 1 μM 5FAM-Fz7-21 and 1 μM 5FAM-Fz7-21S, respectively, incubated with various FZD CRD-Fc proteins (250 nM) overnight at 4° C. prior to analysis by FSEC. […] In FIG. 24A, molecular weight (MW) standards analyzed by UV absorption were plotted as a function of elution volume (Ve) over void volume (Vo). […] Measured values represent the mean±standard deviation (SD) of three independent experiments. […] Binding to recombinant FZD3 and 6 CRDs could not be assessed due to challenges with the expression of these proteins. […]

Assay [2] relates to FZD7, FZD4, 5 or 6 receptors stably expressed in HEK293 cells. Briefly: flow cytometry of cells stably expressing gD-FZD. It counts as binding. As to conditions: peptide 12.5 μM. The method, then:
Cell lines stably expressing gD-FZD were grown to ˜80% confluence in DMEM:F12 (50:50) media supplemented with 10% FBS (cat. no. 1500-100; Seradigm), 1× GlutMAX (cat. no. 35050-061; Gibco) and G418 (200 μg/mL; cat. no. A1720; Sigma), released with 0.05% trypsin/EDTA in PBS (cat. no. 15400-054; Gibco), collected on ice and buffer exchanged into ice cold FACS buffer (0.5% BSA and 0.05% NaAz in PBS). 100,000 cells/well were plated into an ice cold U-bottomed plate (cat. no. 3799; Costar) and cells pelleted by centrifugation at 1200 rpm for 3 min. […] Data was collected with FACSDiva (BD; version 8.0.1) and analyzed using FLowJo (FlowJo, LLC; v10.1).
Selective targeting of the FZD7 receptor subclass was also observed chromatographically. […] See FIGS. 4A and 4B, which provide representative fluorescence traces of 1 μM 5FAM-Fz7-21 and 1 μM 5FAM-Fz7-21S, respectively, incubated with various FZD CRD-Fc proteins (250 nM) overnight at 4° C. prior to analysis by FSEC. […] In FIG. 24A, molecular weight (MW) standards analyzed by UV absorption were plotted as a function of elution volume (Ve) over void volume (Vo). […] Measured values represent the mean±standard deviation (SD) of three independent experiments. […] Binding to recombinant FZD3 and 6 CRDs could not be assessed due to challenges with the expression of these proteins.

Assay [3] deals with FZD CRD-Fc. Briefly: binding of 5FAM peptides to the FZD CRD-Fc panel. The method, then:
Control experiments using 5FAM-Fz7-21S were performed in parallel. 5FAM-Fz7-21 or 5FAM-Fz721S was incubated with each of the aforementioned FZD CRD-Fcs overnight at 4° C. in PBS and resolved via SEC.
In FIGS. 3A-3I, 5FAM-Fz7-21 or 5FAM-Fz7-21S (50 nM in PBS) was incubated with increasing concentration of FZD CRD-Fc (2-fold serial dilutions), and fluorescence intensity was measured using either a Monolith NT.115 or NT.115Pico instrument (NanoTemper Technologies). EC50 values represent the 95% confidence interval of at least three independent experiments, excepting hFZD1 CRD-Fc+5FAM-Fz7-21S, which was done twice. EC50 ovalues were calculated with Prism Graphpad using the Log(agonist) vs. response [variable slope (four parameters) function: Y=Bottom+(Top-Bottom)/(1+10^((Log EC−X)*HillSlope))]. Plotted values represent the mean±s.e.m.

Assay [4] relates to human sFRP1, sFRP2, sFRP3, sFRP4, or sFRP5. Nature of the assay: FSEC with secreted Frizzled-related proteins. Format: binding. As to conditions: sFRP ~250 nM, peptide 10 μM. The method, then: as §1, with “μM). Human secreted Frizzled-related proteins were maintained at ˜250 nM in the presence of excess 5FAM-labeled peptide (10 μM).” for “μM).”
For FIGS. 4C and 5C, values represent the mean±s.e.m. of three independent experiments. […] Samples were resolved using a SEC3000 column (Phenomenex; Torrence, Calif.) at 0.5 mL/min in phosphate buffer saline (PBS) and fluorescence was monitored with an FP-2020 Plus fluorescence detector (Jasco Analytical Instruments, Easton, Md.) using normal mode (excitation/emission […]); gain=100; STD=32. […] Molecular weights were determined by standards (BioRad catalogue number, 151-1901) run prior to sample runs.

Experimental findings from patent US20190359653A1, “SELECTIVE PEPTIDE INHIBITORS OF FRIZZLED” (Genentech, Inc., priority 2016, published 2019) are described below.

Peptide text beside a SMILES is read from it. * marks the point of attachment. 5FAM = O=C1OC2(c3ccc(O)cc3Oc3cc(O)ccc32)c2ccc(C(=O)*)cc21

Regarding `CSCC[C@H](NC(=O)[C@@H](NC(=O)[C@H](Cc1c[nH]cn1)NC(=O)[C@H](CS)NC(=O)[C@H](Cc1c[nH]c2ccccc12)NC(=O)[C@H](Cc1ccccc1)NC(=O)[C@H](CCC(=O)O)NC(=O)[C@H](CC(C)C)NC(=O)[C@H](CC(=O)O)NC(=O)[C@H](CC(=O)O)NC(=O)[C@H](CO)NC(=O)[C@@H]1CCCN1C(=O)[C@H](CC(C)C)NC(=O)c1ccc2c(c1)C(=O)OC21c2ccc(O)cc2Oc2cc(O)ccc21)C(C)C)C(=O)N[C@@H](Cc1ccc(O)cc1)C(N)=O` [5FAM-Fz7-21] (5FAM-LPSDDLEFWCHVMY-NH2; N-terminus and C-terminus assumed), the “complex with FZD CRD-Fc resolved by FSEC” value in assay [1] was “could be resolved”. Moreover, the “binding by flow cytometry analysis” value in assay [2] was “predominant binding to FZD7 with minimal binding to FZD4, 5 or 6 receptors”. In assay [3] (FZD5, FZD8, FZD9 and FZD10 CRDs), the “binding” value was “little to no binding”. Besides, in assay [3] (hFZD1 CRD-Fc, hFZD2 CRD-Fc, hFZD7 CRD-Fc, and mFZD7 CRD-Fc, read-out: affinities), the EC50 lay in the range of 0.039 to 0.116 µM. In addition, the “binding to sFRPs by FSEC” value in assay [4] was “not found to bind”.
For the compound `CSCC[C@H](NC(=O)[C@@H](NC(=O)[C@H](Cc1c[nH]cn1)NC(=O)[C@H](CO)NC(=O)[C@H](Cc1c[nH]c2ccccc12)NC(=O)[C@H](Cc1ccccc1)NC(=O)[C@H](CCC(=O)O)NC(=O)[C@H](CC(C)C)NC(=O)[C@H](CC(=O)O)NC(=O)[C@H](CC(=O)O)NC(=O)[C@H](CO)NC(=O)[C@@H]1CCCN1C(=O)[C@H](CC(C)C)NC(=O)c1ccc2c(c1)C(=O)OC21c2ccc(O)cc2Oc2cc(O)ccc21)C(C)C)C(=O)N[C@@H](Cc1ccc(O)cc1)C(N)=O` [5FAM-Fz7-21S] (5FAM-LPSDDLEFWSHVMY-NH2; N-terminus and C-terminus assumed), the “complex with FZD CRD-Fc resolved by FSEC” value in assay [1] is “no complex was observed”. The “binding” value in assay [3] (any members of the FZD CRD family) was “no detectable binding”. The “binding to sFRPs by FSEC” value in assay [4] is given as “not found to bind”.
